Laboratory results published in patent US20040073958A1, “Transgenic animal having drug metabolism enzyme gene and utilization thereof” (priority 2001, published 2004).
Several values for one entry are separate records, joined by “and”; a condition that tells them apart may be missing. Equal entries are not always repeated.

Legend:
rats and Rhesus monkeys = conditions: cited from earlier work; for teratogenicity in rats as compared with Rhesus monkeys: administered to rats at corresponding generation stages
36p Tg mice = assay: Teratogenicity and fetal toxicity effects of thalidomide in 36p Tg mouse; conditions: for Details of Malformation: number of fetuses in brackets
Experimental: Frozen eggs of the transgenic mouse were prepared in accordance with “Example 4: Production of fertilized egg,” and fertilized eggs of the transgenic mouse were cryopreserved. The frozen fertilized eggs were melted, and 20 eggs were respectively transplanted into the oviducts of pseudopregnant female mice of the ICR lineage, and implanted. On the 9th day of gestation, thalidomide was administered into the maternal peritoneal cavity. The effect of thalidomide was tested at the dosage of: 100 mg/kg, and 200 mg/kg. A mixed solution of Tween 20 and physiological saline (1:3) was used as a vehicle. On the day before the delivery, which is the 19th day of gestation, the maternal body was subjected to laparotomy to observe the conditions inside the womb and the presence of teratogenicity and fetal toxicity in the generated and grown fetus. Also, tissues were collected from the fetuses generated and grown in the womb, or vestige of fetal matter in the womb, DNA was extracted therefrom, and the genotype was assayed by PCR The results are summarized in Table 4.

rat = conditions: early test using a rat; cited from earlier work
Salmonella TA100 = conditions: cited from earlier work
rabbit = conditions: administration of cyclooxygenase inhibitor; cited from earlier work

## O=C1CCC(N2C(=O)c3ccccc3C2=O)C(=O)N1 (centres unmarked) [Thalidomide, thalidomide]
Rats and Rhesus monkeys; teratogenic sensitivity, monkeys versus rats
  sensitivity of monkeys relative to that of rats: ≥ 10 times
Rats and Rhesus monkeys; teratogenic sensitivity
  sensitivity of rats compared with that of Rhesus monkeys: significantly lower
36p Tg mice; 100 mg/kg i.p. day 9 of gestation, laparotomy day 19, single dam
  Implants Total: 15 and 14
36p Tg mice; 100 mg/kg, Total of 2 dams
  Implants Total: 29
  Implants/dam: 14.5
  Live fetuses/dam: 1.5
  Malformations total (%): 33.3%
  Malformations/Tg (%): 100.0%
  Malformations/nTg (%): 0.0%
  Resorptions (%): 89.7%
  Tg fetuses (%): 33.3%
  Tg/Malformations (%): 100.0%
  nTg fetuses (%): 66.7%
36p Tg mice; 100 mg/kg
  Details of Malformation: 100 mg/kg: umbilical hernia (1)
36p Tg mice; 100 mg/kg, single dam
  Malformations/Tg (%): 100.0%
  Malformations/nTg (%): 0.0%
  Resorptions (%): 93.3% and 85.7%
  Tg/Malformations (%): 100.0%
36p Tg mice; 200 mg/kg i.p. day 9 of gestation, laparotomy day 19, single dam
  Implants Total: 8 and 16
36p Tg mice; 200 mg/kg, Total of 2 dams
  Implants Total: 24
  Implants/dam: 12.0
  Live fetuses/dam: 3.0
  Malformations total (%): 16.7%
  Malformations/Tg (%): 33.3%
  Malformations/nTg (%): 0.0%
  Resorptions (%): 70.8%
  Tg fetuses (%): 50.0%
  Tg/Malformations (%): 100.0%
  nTg fetuses (%): 50.0%
36p Tg mice; 200 mg/kg
  Details of Malformation: 200 mg/kg: umbilical hernia (1)
36p Tg mice; 200 mg/kg, single dam
  Malformations total (%): 16.7%
  Malformations/Tg (%): 33.3%
  Malformations/nTg (%): 0.0%
  Resorptions (%): 100.0% and 56.3%
  Tg fetuses (%): 50.0%
  Tg/Malformations (%): 100.0%
  nTg fetuses (%): 50.0%
rat
  malformation of the fetus: did not develop any malformation

## NC(=O)NO [hydroxylurea]
Rats and Rhesus monkeys
  teratogenicity in rats as compared with Rhesus monkeys: teratogenicity was observed at a lower dose

## Aflatoxin B1
Salmonella TA100
  metabolic activation in mutagenicity test: efficiently activated

## CC1=C(/C=C/C(C)=C/C=C/C(C)=C/C(=O)O)C(C)(C)CCC1 [retinoic acid]
Rats and Rhesus monkeys
  teratogenicity in rats as compared with Rhesus monkeys: teratogenicity was observed at a lower dose

## CC[C@]1(O)C[C@H]2CN(CCc3c([nH]c4ccccc34)[C@@](C(=O)OC)(c3cc4c(cc3OC)N(C=O)[C@H]3[C@@](O)(C(=O)OC)[C@H](OC(C)=O)[C@]5(CC)C=CCN6CC[C@]43[C@@H]65)C2)C1 [vincristine]
Rats and Rhesus monkeys
  teratogenicity in rats as compared with Rhesus monkeys: teratogenicity was observed at a lower dose

## O=c1[nH]cc(F)c(=O)[nH]1 [5-fluorouracil]
Rats and Rhesus monkeys
  teratogenicity in rats as compared with Rhesus monkeys: teratogenicity was observed at a lower dose

## CN(Cc1cnc2nc(N)nc(N)c2n1)c1ccc(C(=O)N[C@@H](CCC(=O)O)C(=O)O)cc1 [methotrexate]
Rats and Rhesus monkeys
  teratogenicity in rats as compared with Rhesus monkeys: teratogenicity was observed at a lower dose
Rats and Rhesus monkeys; teratogenic sensitivity, rats versus monkeys
  sensitivity of rats higher than that of monkeys: 20 times

## CC(=O)Oc1ccccc1C(=O)O [acetylsalicylic acid]
Rats and Rhesus monkeys
  teratogenicity in rats as compared with Rhesus monkeys: teratogenicity was observed at a lower dose
rabbit
  effect on teratogenicity of thalidomide: suppresses the teratogenicity of thalidomide
